For one compound, IC50 results are on record in paper PMC8695591 (RSC Advances, 2021).

The target of the experiment is cathepsin B (Homo sapiens, UniProt P07858). The experiment in a line: Cathepsin B inhibition assay. The format is biochemical.

In general, IC50 refers to the concentration needed to halve the response being measured. A higher IC50 goes with weaker potency. For `CC(=O)N[C@@H](CC(C)C)C(=O)N[C@@H](CC(C)C)C(=O)N[C@H](C=O)CCCNC(=N)N` [Leupeptin], the IC50 was 7.5 µM.
